Laboratory results from patent US20080113908A1, “Use of CRF receptor agonists for the treatment or Prophylaxis of diseases, for example Neurodegenerative diseases” (SmithKline Beecham plc, priority 2000, published 2008).

System: GSK-3β
Assay: Western blot of serine-9-phosphorylated GSK-3β (FIG. 5)
Format: cell-based, rat
Conditions: compound alone, 2 hours; CRF 10 nM, LY 294002 75 μM, FSK 30 μM
Source text: It was thought that CRF receptor agonists might interact with the PI 3-kinase signalling pathway and exert their neuroprotective effect by phosphorylating and inhibiting the protein GSK-3β,which is pro-apoptotic (M. Pap and G. M. Cooper, J. Biol. Chem., 273(32), 19929-19932, 1998; and M. Hetman et al. J. Neurosci., 1st Apr. 2000, 20(7), 2567-2574; discussed hereinabove). In order to confirm this, the level of GSK-3β phosphorylated at serine-9 (e.g. see D. A. E. Cross, Nature, 378, 785-789, 1995) in control cultures of cerebellar granule neurones was measured using Western blots, and compared to the level of phospho-GSK-3β in the presence of CRF as a model CRF receptor agonist and/or in the presence of the PI 3-kinase inhibitor LY 294002. In order to determine whether elevation of cAMP was involved in any effect, the level of phospho-GSK-3β in cultures in the presence of the known cAMP-elevating agent forskolin (FSK, obtainable e.g. from Calbiochem.) with or without LY 294002 present was also measured. The forskolin acts as a benchmark for cAMP-related effects.
The method used was as follows. […]
Phosphorylation of GSK-3β was detected using an antibody to serine-9-phosphorylated GSK-3β (anti-phospho-GSK-3β (Ser9)) available as catalogue no. […]

For “H-SQEPPISLDLTFHLLREVLEMTKADQLAQQAHNNRKLLDIA-NH2 [CRF]”, the “phospho-GSK-3β level compared to control CN” value was “increase in basal phospho-GSK-3β”.
